Experimental data: patent US20220167645A1, “METHODS OF IMPROVING FISH FEED CONVERSION RATE AND SURVIVAL” (AQUINOVO LTD., priority 2019, published 2022)
Numbered stars: 1 amine (or outer) side, 2 acyl side, 3 side chain; on linkers, the order of the positions; unused ones are H or OH. Square brackets hold non-standard residues; d marks the D form. Suc = O=C(CCC(=O)[*:2])[*:1]; NMeV = CN[C@H](C(=O)O)C(C)C; βAla = NCCC(=O)O

Test system: Tilapia fish
Test: Experiment #3: tilapia fed AN6-coated feed, treatment schedules 1 to 8 (survival, weight, length, size distribution, FCR)
Assay type: in vivo
Conditions: for increase in average fish weight: D279, compared to control; for % big fish (Big fish 279 dph >1000 g) / % small fish (Small fish 279 dph >476 g) / Δ Treatment - Control (%) big fish (>1000 g) / Δ Treatment - Control (%) small fish (>476 g) / Big fish # (Big fish 279 dph >1000 g) / Small fish # (Small fish 279 dph): 279 dph; for Average FCR/cage / Average density (body/cage) / Average weight gain/fish (g) / Average weight/fish (g) / Total weight/cage (g): D 236 to D 279, % change relative to control
Procedure: The following fish feed was used in this experiment: MeM (powder, manufactured by Bern Aqua), Nanolis P1, P2 (pellet sizes of 1 mm, 1.2-1.5 mm, respectively, manufactured by Ocialis) and Tilaphi 2, 3 & 4 (pellet sizes of 2 mm, 3-4 mm & 5.5 mm manufactured by Ocialis). The feed content is in described in Table 4.
Feed was coated using the following general procedure: Different amounts of the peptide AN6 (SEQ ID NO: 6) were prepared by dissolving the peptide in Tris-HCl solution (50 mM, pH=8.8) in ratio of 15 mg peptide to 1.25 ml Tris-HCl solution. Then, each of the various solutions was mixed with 3 Kg of the basic feed pellets (depending on fish size) using an electric mixer. The peptide-feed mixtures where then dried either in oven at 40° C. for 24 hours or in drying drum (at room temperature) for few hours to form coated pellets.
Tilapia fish (n=4800) were raised from day 10 (0.05 g) post-hatch (dph) in indoor tanks and then transferred to outdoor cages in ponds (40-279 dph). Each cage/tank is an experimental unit. The fish were fed to apparent satiation 2-4 times a day with feed appropriate to their age and treatment as described in Table 5.
The trial included total 48 cages representing 8 treatments, with 6 repeats each. Each cage contained about 100 fish. […] Fed to fish throughout the entire growth-trial period (for 279 days); • Treatment 2 (5 ppm from 10 dph for 120 days): The control diet with the addition of 5 mg peptide/kg of diet (Feed F). Fish were fed the peptide enriched diet for 120 days (4 months), from 10 days of age (D0—the first day of the experiment) to 130 days of age (D120), and the control diet during the last 6 months (159 days) (Feed E); • Treatment 3 (10 ppm from 10 dph for 60 days): The control diet with the addition of 10 mg peptide/kg of diet (Feed G). […] Fish were fed the peptide enriched diet for 90 days (3 months) from 10 days of age (D0) to 100 days of age (D90) and the control diet for the last 7 months (189 days) (Feed E); • Treatment 5 (10 ppm from 10 dph for 120 days): The control diet with the addition of 10 mg peptide/kg of diet (Feed G). Fish were fed the peptide enriched diet for 120 days (4 months) from 10 days of age (D0) to 130 days of age (D120) and the control diet for the last 6 months (159 days) (Feed E); • Treatment 6 (10 ppm from 100 dph for 30 days): The control diet with the addition of 10 mg peptide/kg of diet (Feed G). Fish were fed the peptide enriched diet for 30 days (1 month) from 100 days of age (D90) to 130 days of age (D120) and the control diet for the first three months (90 days from D0 to D90) and the last 6 months (159 days) (Feed E); • Treatment 7 (30 ppm from 10 dph for 60 days): The control diet with the addition of 30 mg peptide/kg of diet (Feed H). Fish were fed the peptide enriched diet for 60 days (2 months) from 10 days of age (D0) to 70 days of age (D60), and the control diet during the last 8 months (219 days) (Feed E); • Treatment 8 (30 ppm from 10 dph for 90 days): The control diet with the addition of 30 mg peptide/kg of diet (Feed H). Fish were fed the peptide enriched diet for 90 days (3 months) from 10 days of age (D0) to 100 days of age (D90) and the control diet for the last 7 months (189 days) (Feed E).
During the experimental period, fish weight and length were measured once a month. Individual fish sex was determined at days 96 and 279 of the experiment. Average fish weight per cage were calculated for each measurement period (FIG. 8). […] Between two weight measurements, average weight gain (FIG. 9A) and daily growth rates (FIG. 9B) were calculated by subtracting the average weight at the beginning and end of the measuring period and dividing by the number of days between.
In order to determine the efficiency of feed conversion into fish substance in experiments (#1, #2, #3), FCR values which reflect the amount of feed needed to grow a kilogram fish, were calculated for each period and for the entire fish growth period. […]

[1] = AN6 for 60 days, 10 mg/Kg feed (Treatment 3)
[2] = AN6 for 90 days, 30 mg/Kg feed (Treatment 8)
[3] = AN6 treated groups (Treatments 2, 3, or 8)
[4] = Treatment 2 (5 ppm from 10 dph for 120 days)
[5] = Treatment 2 (5 ppm from 10 dph for 120 days), of 451 fish
[6] = Treatment 2 (5 ppm from 10 dph for 120 days), female fish, D 96
[7] = Treatment 2 (5 ppm from 10 dph for 120 days), female fish, D 279
[8] = Treatment 2 (5 ppm from 10 dph for 120 days), male fish, D 96
[9] = Treatment 2 (5 ppm from 10 dph for 120 days), male fish, D 279
[10] = Treatment 3 (10 ppm from 10 dph for 60 days)
[11] = Treatment 3 (10 ppm from 10 dph for 60 days), of 480 fish
[12] = Treatment 3 (10 ppm from 10 dph for 60 days), female fish, D 96
[13] = Treatment 3 (10 ppm from 10 dph for 60 days), female fish, D 279
[14] = Treatment 3 (10 ppm from 10 dph for 60 days), male fish, D 96
[15] = Treatment 3 (10 ppm from 10 dph for 60 days), male fish, D 279
[16] = Treatment 4 (10 ppm from 10 dph for 90 days)
[17] = Treatment 4 (10 ppm from 10 dph for 90 days), of 463 fish
[18] = Treatment 4 (10 ppm from 10 dph for 90 days), female fish, D 96
[19] = Treatment 4 (10 ppm from 10 dph for 90 days), female fish, D 279
[20] = Treatment 4 (10 ppm from 10 dph for 90 days), male fish, D 96
[21] = Treatment 4 (10 ppm from 10 dph for 90 days), male fish, D 279
[22] = Treatment 5 (10 ppm from 10 dph for 120 days)
[23] = Treatment 5 (10 ppm from 10 dph for 120 days), of 441 fish

## Succ-Asp-Ser- D-Trp -N(Me)Val-βAla-Leu-Met-NH2 (Suc-DS[dW][NMeV][βAla]LM-NH2; SMILES CSCC[C@H](NC(=O)[C@H](CC(C)C)NC(=O)CCNC(=O)[C@H](C(C)C)N(C)C(=O)[C@@H](Cc1c[nH]c2ccccc12)NC(=O)[C@H](CO)NC(=O)[C@H](CC(=O)O)NC(=O)CCC(=O)O)C(N)=O) [AN6]
5 mg AN6/Kg for 120 days (Treatment 2)
  increase in average fish weight: +7.11%
10 mg AN6/Kg feed from 10 dph for 120 days (Treatment 5)
  increase in average fish weight: +6.41%
5 ppm and 10 ppm AN6 for sufficient time (>90 days), throughout the experimental period
  increased daily growth rate, on average compared to the control: 5.8%
[1]
  FCR: improved FCR significantly
  growth: did not affect growth
[2]
  FCR: improved FCR significantly
  growth: did not affect growth
[3]
  proportion of large fish (>1000 g): higher proportion
  proportion of small fish (<476 g): lower proportion
[4]
  % big fish (Big fish 279 dph >1000 g): 16.6%
  % small fish (Small fish 279 dph >476 g): 4.7%
  Δ Treatment - Control (%) big fish (>1000 g): 6.4%
  Δ Treatment - Control (%) small fish (>476 g): −4.5%
  Average FCR/cage: −2.14%
  Average density (body/cage): 0.45%
  Average weight gain/fish (g): 6.18%
  Average weight/fish (g): 6.41%
  Total weight/cage (g): 6.71%
[5]
  Big fish # (Big fish 279 dph >1000 g): 75
  Small fish # (Small fish 279 dph): 21
[6]
  Length/fish (cm) Mean: 15.85 cm
  Weight/fish (g) Mean: 87.35 g
  Δ Mean % (Treatment vs. control) Length/fish: 0.38%
  Δ Mean % (Treatment vs. control) Weight/fish: 6.24%
[7]
  Length/fish (cm) Mean: 30.76 cm
  Weight/fish (g) Mean: 651.83 g
  Δ Mean % (Treatment vs. control) Length/fish: 2.09%
  Δ Mean % (Treatment vs. control) Weight/fish: 8.30%
[8]
  Length/fish (cm) Mean: 17.22 cm
  Weight/fish (g) Mean: 111.8 g
  Δ Mean % (Treatment vs. control) Length/fish: 0.00%
  Δ Mean % (Treatment vs. control) Weight/fish: 5.97%
[9]
  Length/fish (cm) Mean: 34.37 cm
  Weight/fish (g) Mean: 916.05 g
  Δ Mean % (Treatment vs. control) Length/fish: −0.03%
  Δ Mean % (Treatment vs. control) Weight/fish: 5.86%
[10]
  % big fish (Big fish 279 dph >1000 g): 16.5%
  % small fish (Small fish 279 dph >476 g): 4.8%
  Δ Treatment - Control (%) big fish (>1000 g): 6.2%
  Δ Treatment - Control (%) small fish (>476 g): −4.3%
  Average FCR/cage: −4.28%
  Average density (body/cage): 6.91%
  Average weight gain/fish (g): 9.19%
  Average weight/fish (g): 3.44%
  Total weight/cage (g): 10.27%
[11]
  Big fish # (Big fish 279 dph >1000 g): 79
  Small fish # (Small fish 279 dph): 23
[12]
  Length/fish (cm) Mean: 16.03 cm
  Weight/fish (g) Mean: 87.67 g
  Δ Mean % (Treatment vs. control) Length/fish: 1.52%
  Δ Mean % (Treatment vs. control) Weight/fish: 6.63%
[13]
  Length/fish (cm) Mean: 30.5 cm
  Weight/fish (g) Mean: 629.02 g
  Δ Mean % (Treatment vs. control) Length/fish: 1.23%
  Δ Mean % (Treatment vs. control) Weight/fish: 4.51%
[14]
  Length/fish (cm) Mean: 17.19 cm
  Weight/fish (g) Mean: 106.51 g
  Δ Mean % (Treatment vs. control) Length/fish: −0.17%
  Δ Mean % (Treatment vs. control) Weight/fish: 0.96%
[15]
  Length/fish (cm) Mean: 34.14 cm
  Weight/fish (g) Mean: 877.38 g
  Δ Mean % (Treatment vs. control) Length/fish: −0.70%
  Δ Mean % (Treatment vs. control) Weight/fish: 1.39%
[16]
  % big fish (Big fish 279 dph >1000 g): 14.7%
  % small fish (Small fish 279 dph >476 g): 4.8%
  Δ Treatment - Control (%) big fish (>1000 g): 4.4%
  Δ Treatment - Control (%) small fish (>476 g): −4.4%
  Average FCR/cage: −2.14%
  Average density (body/cage): 3.34%
  Average weight gain/fish (g): 1.69%
  Average weight/fish (g): 3.89%
  Total weight/cage (g): 7.37%
[17]
  Big fish # (Big fish 279 dph >1000 g): 68
  Small fish # (Small fish 279 dph): 22
[18]
  Length/fish (cm) Mean: 15.96 cm
  Weight/fish (g) Mean: 86.4 g
  Δ Mean % (Treatment vs. control) Length/fish: 1.08%
  Δ Mean % (Treatment vs. control) Weight/fish: 5.08%
[19]
  Length/fish (cm) Mean: 30.48 cm
  Weight/fish (g) Mean: 631.17 g
  Δ Mean % (Treatment vs. control) Length/fish: 1.16%
  Δ Mean % (Treatment vs. control) Weight/fish: 4.86%
[20]
  Length/fish (cm) Mean: 17.26 cm
  Weight/fish (g) Mean: 111.87 g
  Δ Mean % (Treatment vs. control) Length/fish: 0.23%
  Δ Mean % (Treatment vs. control) Weight/fish: 6.04%
[21]
  Length/fish (cm) Mean: 34.15 cm
  Weight/fish (g) Mean: 881.92 g
  Δ Mean % (Treatment vs. control) Length/fish: −0.67%
  Δ Mean % (Treatment vs. control) Weight/fish: 1.92%
[22]
  % big fish (Big fish 279 dph >1000 g): 12.0%
  % small fish (Small fish 279 dph >476 g): 8.6%
  Δ Treatment - Control (%) big fish (>1000 g): 1.8%
  Δ Treatment - Control (%) small fish (>476 g): −0.5%
  Average FCR/cage: −0.53%
  Average density (body/cage): −1.78%
  Average weight gain/fish (g): 7.59%
[23]
  Big fish # (Big fish 279 dph >1000 g): 53
  Small fish # (Small fish 279 dph): 38
